From ChEMBL document CHEMBL1201862, “PubChem BioAssay data set” (2004) come the findings set out here.

Among the test systems are SK-OV-3; OVCAR-3; MCF7; SF-268; KM12; DMS-114; OVCAR-5; A498; NCI-H522; UACC-257; SK-MEL-5; IGROV-1; CCRF-CEM; RXF 393; NCI-H460; HOP-62; NCI-H23; HOP-92; HCC 2998; TK-10.
What all share (assay): NCI anticancer screen, dose series, 48 h

Each structure is given as a SMILES string.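 Five concentrations, 48 hours, 96-well plates. GI50 = concentration required for 50% inhibition of growth.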 Calls of active or inactive are those of the source. Cut-off read from the data, not from the text of the source: active = GI50 up to about 1.1 µM and inactive = higher.

`C=C1C(=O)OC2C1CC1OC2C(C)CCC/C(C)=C\CCC1(C)O` (configuration not stated): the GI50 in the test with SK-OV-3 is 65.3 µM (inactive); in the test with OVCAR-3 it was 9.75 µM (inactive); with MCF7, 15.3 µM (inactive); in the test on SF-268, 13 µM (inactive); in the test on KM12, 19.8 µM (inactive); with DMS-114, 11.6 µM (inactive). Also, the GI50 is 69.2 µM (inactive) with OVCAR-5; 19.9 µM (inactive) with A498; 8.71 µM (inactive) with NCI-H522; 22.6 µM (inactive) with UACC-257; 5.14 µM (inactive) in the test on SK-MEL-5; 13.9 µM (inactive) in the test with IGROV-1. Further, the GI50 in the test with CCRF-CEM was 6.82 µM (inactive); with RXF 393, 5.7 µM (inactive); in the test with NCI-H460, 20.1 µM (inactive); in the test on HOP-62 it was 32.2 µM (inactive); in the test on NCI-H23, 9.25 µM (inactive); with HOP-92, 10.7 µM (inactive). For the same compound, the GI50 with HCC 2998 is 20.3 µM (inactive).

`COC1=CC(=O)C=C(OC)C1=O` [2,6-DIMETHOXYQUINONE]: the GI50 was 17.9 µM (inactive) in the test on SK-OV-3; 4.78 µM (inactive) in the test on OVCAR-3; 17.7 µM (inactive) with MCF7; 6.46 µM (inactive) in the test with SF-268; 16.4 µM (inactive) in the test on KM12; 5.81 µM (inactive) in the test on DMS-114. Also, the GI50 in the test with OVCAR-5 was 28.1 µM (inactive); with A498 it was 2.49 µM (inactive); in the test with NCI-H522 it was 7.05 µM (inactive); with UACC-257, 10.2 µM (inactive); in the test on SK-MEL-5, 20.9 µM (inactive); in the test on IGROV-1, 11.3 µM (inactive). In addition, the GI50 with CCRF-CEM was 1.38 µM (inactive); in the test with RXF 393, 7.96 µM (inactive); in the test on NCI-H460, 23.7 µM (inactive); in the test with HOP-62, 25.3 µM (inactive); with NCI-H23 it was 7.66 µM (inactive); with HOP-92 it was 4.16 µM (inactive). The GI50 in the test with HCC 2998 is 27.9 µM (inactive).

With `CCN(CC)CCCNc1ncc(C)c2[nH]c3ccncc3c12`, the GI50 in the test on SK-OV-3 was 5.82 µM (inactive); in the test with OVCAR-3, 12.2 µM (inactive); in the test with MCF7 it was 3.31 µM (inactive); in the test with SF-268, 6.75 µM (inactive); with KM12, 6.18 µM (inactive); in the test with DMS-114, 7.8 µM (inactive). The GI50 in the test on OVCAR-5 is 4.7 µM (inactive); in the test with A498 it was 17.6 µM (inactive); with NCI-H522, 7.74 µM (inactive); in the test with UACC-257, 12.5 µM (inactive); with SK-MEL-5, 13.6 µM (inactive); in the test on IGROV-1, 5.37 µM (inactive). Further, the GI50 was 21.6 µM (inactive) with CCRF-CEM; 6.61 µM (inactive) with RXF 393; 3.33 µM (inactive) in the test with NCI-H460; 18.6 µM (inactive) in the test with HOP-62; 12.7 µM (inactive) in the test with NCI-H23; 6.1 µM (inactive) in the test with HOP-92. Moreover, in the test with HCC 2998, the GI50 is 8.61 µM (inactive).

`NCCCNCCSSCc1ccccc1CSSCCNCCCN`: the GI50 in the test on SK-OV-3 is > 100 µM (inactive); with OVCAR-3 it was 73.8 µM (inactive); in the test with SF-268 it was 85.1 µM (inactive); in the test on KM12, 49.9 µM (inactive); in the test with DMS-114, 57.3 µM (inactive); in the test with OVCAR-5 it was > 100 µM (inactive). Moreover, the GI50 with A498 was > 100 µM (inactive); with NCI-H522, 10.7 µM (inactive); with UACC-257, 25 µM (inactive); in the test with SK-MEL-5, 79.3 µM (inactive); with IGROV-1, > 100 µM (inactive); with TK-10, > 100 µM (inactive). Besides, the GI50 with CCRF-CEM is 4.54 µM (inactive); in the test on RXF 393 it was > 100 µM (inactive); with NCI-H460 it was > 100 µM (inactive); with HOP-62, > 100 µM (inactive); with NCI-H23 it was > 100 µM (inactive); in the test with HOP-92, 25.9 µM (inactive). Besides, the GI50 in the test with HCC 2998 is 81.5 µM (inactive).

Turning to `COc1cc(C2c3cc4c(cc3[C@@H](Nc3cnc5ccccc5c3)C3COC(=O)[C@H]23)OCO4)cc(OC)c1O` (some centres not stated), the GI50 in the test with SK-OV-3 was 0.615 µM (active); in the test with OVCAR-3, 1.65 µM (inactive); with MCF7, 0.0834 µM (active); with SF-268 it was 0.327 µM (active); in the test on KM12 it was 0.883 µM (active); in the test with DMS-114, 0.277 µM (active). Besides, the GI50 with OVCAR-5 is 0.736 µM (active); in the test with A498 it was 0.22 µM (active); in the test with NCI-H522, 1.03 µM (active); in the test on UACC-257, 0.839 µM (active); with SK-MEL-5, 0.193 µM (active); with IGROV-1 it was 1.39 µM (inactive). In addition, the GI50 was 0.043 µM (active) with CCRF-CEM; 0.912 µM (active) in the test on RXF 393; < 0.01 µM (active) with NCI-H460; 0.128 µM (active) in the test with HOP-62; 0.311 µM (active) in the test with NCI-H23; 0.381 µM (active) in the test with HOP-92. Further, the GI50 in the test with HCC 2998 is 0.794 µM (active).

`CCCCCCCCCCCC[N+](CCCCCCCCCCCC)=C1SCCS1`: the GI50 in the test on SK-OV-3 is 16.6 µM (inactive); in the test on OVCAR-3, 7.76 µM (inactive); with SF-268, 8.04 µM (inactive); in the test with DMS-114, 1.7 µM (inactive); in the test with OVCAR-5 it was 12.2 µM (inactive); in the test with A498, 15.7 µM (inactive). In addition, the GI50 with NCI-H522 was 5.82 µM (inactive); with UACC-257, 9.14 µM (inactive); in the test with SK-MEL-5, 6.07 µM (inactive); with IGROV-1, 10.5 µM (inactive); in the test with TK-10 it was 15.2 µM (inactive); in the test on RXF 393 it was 3.45 µM (inactive). The GI50 in the test with NCI-H460 was 7.28 µM (inactive); with HOP-62 it was 16.7 µM (inactive); with NCI-H23, 2.04 µM (inactive); with HOP-92 it was 10.8 µM (inactive); in the test on HCC 2998 it was 10.3 µM (inactive).

`COc1ccc(C(=O)/C(Br)=C/C(=O)O)cc1`: the GI50 is 69.8 µM (inactive) in the test on SK-OV-3; 9.75 µM (inactive) in the test with MCF7; 31.6 µM (inactive) with SF-268; 14.7 µM (inactive) in the test with KM12; 18.6 µM (inactive) in the test with DMS-114; 42.1 µM (inactive) with OVCAR-5. Moreover, the GI50 is 25.1 µM (inactive) in the test on A498; 7 µM (inactive) in the test on NCI-H522; 26.9 µM (inactive) in the test on UACC-257; 20.7 µM (inactive) in the test on SK-MEL-5; 51.3 µM (inactive) in the test on TK-10; 23.2 µM (inactive) in the test with NCI-H460. Further, the GI50 in the test on HOP-62 was 17.4 µM (inactive); with NCI-H23 it was 26.8 µM (inactive); in the test with HOP-92 it was 28.4 µM (inactive); in the test on HCC 2998, 19.2 µM (inactive).

In the case of `O=NN(CCCl)C(=O)N[C@H]1CCCC[C@@H]1Cl`, the GI50 in the test with SK-OV-3 was > 100 µM (inactive); with OVCAR-3, > 100 µM (inactive); in the test on SF-268, 16.7 µM (inactive); with KM12 it was > 100 µM (inactive); in the test on DMS-114, 34.2 µM (inactive); in the test on A498, > 100 µM (inactive). Moreover, the GI50 in the test on NCI-H522 was > 100 µM (inactive); with SK-MEL-5 it was > 100 µM (inactive); in the test on IGROV-1 it was > 100 µM (inactive); in the test on TK-10, > 100 µM (inactive); with CCRF-CEM, 19.6 µM (inactive); in the test on RXF 393 it was > 100 µM (inactive). Also, the GI50 with NCI-H460 is 29.4 µM (inactive); with NCI-H23, 71.6 µM (inactive); with HOP-92 it was > 100 µM (inactive); in the test on HCC 2998, > 100 µM (inactive).

Take `CC(=O)C(C(=O)C(=O)Nc1cc(Cl)c(Cl)cc1Cl)c1csc(N)n1` (configuration not stated): the GI50 in the test on SK-OV-3, in the test on SF-268, in the test with KM12, in the test with DMS-114, in the test on OVCAR-5 and in the test on A498 was > 100 µM (inactive) throughout. Besides, the GI50 in the test on NCI-H522, in the test with UACC-257, in the test on SK-MEL-5, in the test on IGROV-1, with TK-10 and in the test with CCRF-CEM was > 100 µM (inactive) throughout. Moreover, the GI50 with RXF 393, in the test with NCI-H460, with HOP-62, in the test on NCI-H23, in the test on HOP-92 and with HCC 2998 was > 100 µM (inactive) each time.
